According to article PMC6511888, “Synthesis, Biological Evaluation, and Molecular Modeling Studies of New Thiadiazole Derivatives as Potent P2X7 Receptor Inhibitors” (Frontiers in Chemistry, 2019):

What was measured:
Caco-2 cells = test: Caco-2 cell permeability; format: in vitro ADME; details: compared to the controls and 9f and 11c
Description: Corning® Costar® Transwell plates (Sigma-Aldrich, St. Louis, MO, USA) were used for seeding Caco-2 cells at 3 × 10^5 cells/well bathed with DMEM supplemented with 10% FSB according to Faria and collaborator in 2018 (Faria et al., [2018]). This culture was maintained for up to 21 days in a humidified incubator at 37°C and 5% CO2. Thiadiazole analog, vinblastine (poor permeability control), and propranolol (high permeability control) stock solutions, all at a concentration of 100 mM, were prepared in Hanks' balanced salt solution (HBSS) containing 25 mM HEPES at pH 7.4 with 0.5% (v/v) DMSO. Transport buffer (0.3 ml) was added to each well to equilibrate the cells with the transport buffer. A 24-well enhanced recovery plate containing 1 ml of transport buffer (pH 7.4) was substituted for the feeder tray. The transport buffer in the apical wells was removed, and 0.3 ml of a solution containing thiadiazoles 9b, 9c, 9f, or 11c; vinblastine; or propranolol was added. Then, the cells were replaced for incubation for 60 min. Lucifer yellow concentrations in the donor and acceptor wells were measured in the last of this incubation. Lucifer yellow was measured using an M5 plate reader ([…]) at an excitation wavelength of 485 nm and an emission wavelength of 530 nm.

P2Y4R = target: T1, P2Y4R (Mus musculus, UniProt Q9JJS7); test: MRS4062-induced [Ca2+]i shifts in mice peritoneal macrophages; format: cell-based; details: concentration not given
T1 construct: endogenous in cells; host or cells: mouse peritoneal macrophages
Description: (§1) Mouse peritoneal macrophages, PC12 cells, J774 cells, and HEPG2 cells were analyzed by fluorescence microscopy to measure the intracellular Ca^2+ concentrations ([Ca^2+]i). Cells were incubated with 2 μM Fura-2-AM (Molecular Probes) for 30 min, and the [Ca^2+]i mobilization was measured in the F340/F380 ratios with a FlexStation 3 multimode microplate reader (Molecular Devices). Cells were plated in translucent 96-well plates (BD Falcon) for 15 min and then washed and incubated in a saline solution with 150 NaCl, 5 KCl, 1 MgCl2, 1 CaCl2, and 10 HEPES (pH 7.4) for 30 min before measurements of [Ca^2+]i. The Ca^2+ influx was induced by stimulating cells with P2 receptor agonists. P2 receptor antagonists were added 10 min before P2 receptor agonist addition. […] Ionomycin was considered a positive control, and the other recordings were normalized in relation to the AUC.

P2Y1R = target: T2, P2Y1R (Mus musculus, UniProt P49650); test: ADP-induced [Ca2+]i shifts in mouse peritoneal macrophages; format: cell-based; details: concentration not given
T2 construct: endogenous in cells; host or cells: mouse peritoneal macrophages
Description: as §1

P2Y13R = target: T3, P2Y13R (Homo sapiens, UniProt Q9BPV8); test: ADPβS-induced [Ca2+]i shifts in HEP2G cells; format: cell-based; details: concentration not given
T3 construct: endogenous in cells; host or cells: HEP2G (HEPG2) cells
T3 sequence (Q9BPV8 1-354): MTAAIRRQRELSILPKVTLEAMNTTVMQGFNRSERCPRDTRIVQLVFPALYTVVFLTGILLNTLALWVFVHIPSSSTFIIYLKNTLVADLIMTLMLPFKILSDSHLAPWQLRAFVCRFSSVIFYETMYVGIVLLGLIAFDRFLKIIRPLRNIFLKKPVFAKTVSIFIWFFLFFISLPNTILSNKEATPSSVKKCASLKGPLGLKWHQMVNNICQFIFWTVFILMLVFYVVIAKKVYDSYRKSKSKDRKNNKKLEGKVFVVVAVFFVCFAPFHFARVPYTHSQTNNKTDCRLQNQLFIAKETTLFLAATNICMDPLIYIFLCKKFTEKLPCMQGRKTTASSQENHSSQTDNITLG
Description: as §1

P2X4R = target: T4, P2X4R (Rattus norvegicus, UniProt P51577); test: ATP-induced [Ca2+]i shifts potentiated by ivermectin in NR8383 alveolar macrophage cell line; format: cell-based; details: 10 μM; NR8383 cells
T4 construct: endogenous in cells; host or cells: NR8383 rat alveolar macrophage cell line
T4 sequence (P51577 1-388): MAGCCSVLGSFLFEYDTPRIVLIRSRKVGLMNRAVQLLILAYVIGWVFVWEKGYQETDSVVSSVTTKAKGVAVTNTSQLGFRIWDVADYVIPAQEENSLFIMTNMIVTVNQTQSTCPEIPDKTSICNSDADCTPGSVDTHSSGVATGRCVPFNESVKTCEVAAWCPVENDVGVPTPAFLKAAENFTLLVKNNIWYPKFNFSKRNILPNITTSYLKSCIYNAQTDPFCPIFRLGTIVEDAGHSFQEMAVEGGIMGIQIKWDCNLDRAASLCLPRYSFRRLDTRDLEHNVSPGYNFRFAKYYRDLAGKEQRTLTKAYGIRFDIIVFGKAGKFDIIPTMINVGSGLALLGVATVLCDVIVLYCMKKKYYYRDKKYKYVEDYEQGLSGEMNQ

P2Y2R = target: T5, P2Y2R (Mus musculus, UniProt P35383); test: 2-S-UTP-activated [Ca2+]i shifts in mouse peritoneal macrophages; format: cell-based; details: concentration not given
T5 construct: endogenous in cells; host or cells: mouse peritoneal macrophages
Description: as §1

P2Y6R = target: T6, P2Y6R (Mus musculus, UniProt Q9ERK9); test: UDPβS-activated [Ca2+]i shifts in mouse peritoneal macrophages; format: cell-based; details: concentration not given
T6 construct: endogenous in cells; host or cells: mouse peritoneal macrophages
Description: as §1

P2X2R = target: T7, P2X2R (Rattus norvegicus, UniProt P49653); test: ATP-induced [Ca2+]i shifts in PC12 cells; format: cell-based
T7 construct: endogenous in cells; host or cells: PC12 cells
T7 sequence (P49653 1-472): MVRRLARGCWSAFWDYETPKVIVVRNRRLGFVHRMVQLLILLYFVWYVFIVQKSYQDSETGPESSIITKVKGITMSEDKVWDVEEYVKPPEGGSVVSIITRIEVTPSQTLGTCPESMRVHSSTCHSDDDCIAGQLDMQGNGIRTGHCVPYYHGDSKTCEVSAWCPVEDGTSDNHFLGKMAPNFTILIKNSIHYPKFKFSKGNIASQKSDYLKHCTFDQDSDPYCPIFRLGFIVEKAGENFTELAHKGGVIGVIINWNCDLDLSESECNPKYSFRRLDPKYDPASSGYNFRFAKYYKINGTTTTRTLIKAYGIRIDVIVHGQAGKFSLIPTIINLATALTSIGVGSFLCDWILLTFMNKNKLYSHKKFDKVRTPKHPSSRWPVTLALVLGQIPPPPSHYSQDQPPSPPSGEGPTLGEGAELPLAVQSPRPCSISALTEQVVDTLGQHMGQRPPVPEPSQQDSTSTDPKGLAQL
Description: as §1

P2Y12R = target: T8, P2Y12R (Mus musculus, UniProt Q9CPV9); test: 2MeSADP-activated [Ca2+]i shifts in mouse peritoneal macrophages; format: cell-based; details: concentration not given
T8 construct: endogenous in cells; host or cells: mouse peritoneal macrophages

P2Y11R = test: NAADP-induced [Ca2+]i shifts in mouse peritoneal macrophages; format: cell-based; details: concentration not given
Description: as §1

T5 sequence (P35383 whole entry): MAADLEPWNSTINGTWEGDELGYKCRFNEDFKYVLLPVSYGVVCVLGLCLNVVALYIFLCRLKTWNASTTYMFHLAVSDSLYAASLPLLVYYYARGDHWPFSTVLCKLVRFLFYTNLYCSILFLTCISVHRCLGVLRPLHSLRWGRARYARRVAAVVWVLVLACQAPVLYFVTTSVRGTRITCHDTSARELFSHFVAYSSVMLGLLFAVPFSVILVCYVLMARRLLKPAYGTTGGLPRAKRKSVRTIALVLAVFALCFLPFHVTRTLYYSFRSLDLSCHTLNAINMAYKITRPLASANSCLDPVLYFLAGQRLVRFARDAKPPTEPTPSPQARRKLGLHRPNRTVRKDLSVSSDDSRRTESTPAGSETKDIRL
T2 sequence (P49650 whole entry): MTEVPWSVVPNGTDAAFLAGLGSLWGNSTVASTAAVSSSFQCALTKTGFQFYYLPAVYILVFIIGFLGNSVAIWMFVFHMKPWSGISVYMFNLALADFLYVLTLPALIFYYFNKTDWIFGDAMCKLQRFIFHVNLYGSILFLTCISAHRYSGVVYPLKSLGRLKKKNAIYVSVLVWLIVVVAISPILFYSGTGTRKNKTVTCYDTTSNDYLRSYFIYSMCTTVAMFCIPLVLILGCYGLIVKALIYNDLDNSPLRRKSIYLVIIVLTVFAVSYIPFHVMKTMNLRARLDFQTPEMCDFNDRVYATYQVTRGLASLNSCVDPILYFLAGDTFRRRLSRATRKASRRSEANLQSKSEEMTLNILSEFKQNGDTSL
T8 sequence (Q9CPV9 whole entry): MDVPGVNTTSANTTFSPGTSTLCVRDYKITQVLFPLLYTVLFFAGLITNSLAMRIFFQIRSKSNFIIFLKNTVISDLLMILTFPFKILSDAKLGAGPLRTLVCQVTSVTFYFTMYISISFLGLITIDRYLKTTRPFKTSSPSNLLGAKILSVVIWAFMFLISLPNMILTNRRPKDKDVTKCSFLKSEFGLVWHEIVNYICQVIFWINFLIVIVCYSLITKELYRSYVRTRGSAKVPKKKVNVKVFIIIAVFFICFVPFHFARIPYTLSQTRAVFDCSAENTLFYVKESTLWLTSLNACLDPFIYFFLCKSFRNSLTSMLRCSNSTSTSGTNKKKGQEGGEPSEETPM
T1 sequence (Q9JJS7 whole entry): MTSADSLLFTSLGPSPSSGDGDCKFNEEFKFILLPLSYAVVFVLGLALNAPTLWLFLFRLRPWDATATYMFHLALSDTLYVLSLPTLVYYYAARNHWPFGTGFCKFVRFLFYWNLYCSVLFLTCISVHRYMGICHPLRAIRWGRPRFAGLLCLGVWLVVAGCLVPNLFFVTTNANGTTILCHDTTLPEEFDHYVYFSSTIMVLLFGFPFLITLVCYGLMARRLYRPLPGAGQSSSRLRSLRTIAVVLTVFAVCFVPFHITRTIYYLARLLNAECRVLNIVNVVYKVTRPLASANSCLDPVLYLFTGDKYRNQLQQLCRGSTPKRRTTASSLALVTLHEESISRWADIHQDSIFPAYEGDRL
T6 sequence (Q9ERK9 whole entry): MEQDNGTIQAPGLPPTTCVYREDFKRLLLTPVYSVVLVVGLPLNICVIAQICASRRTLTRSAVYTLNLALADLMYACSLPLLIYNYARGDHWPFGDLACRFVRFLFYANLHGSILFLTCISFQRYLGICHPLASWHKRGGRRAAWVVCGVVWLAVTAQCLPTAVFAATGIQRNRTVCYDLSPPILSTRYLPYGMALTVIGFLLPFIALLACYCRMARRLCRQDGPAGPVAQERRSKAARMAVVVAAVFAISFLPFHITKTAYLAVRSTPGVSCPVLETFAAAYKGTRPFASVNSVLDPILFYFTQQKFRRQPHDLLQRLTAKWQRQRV

Row | Structure (SMILES) | Permeability in Caco-2 cells (in words) (Caco-2 cells) | Effect on MRS4062-induced [Ca2+]i shifts (P2Y4R) | Effect on ADP-induced [Ca2+]i shifts (P2Y1R) | Effect on ADPβS-induced [Ca2+]i shifts (P2Y13R) | Effect on ATP-induced [Ca2+]i shifts potentiated by 1 μM ivermectin (P2X4R) | Effect on 2-S-UTP-activated [Ca2+]i shifts (P2Y2R) | Effect on UDPβS-activated [Ca2+]i shifts (P2Y6R) | Effect on ATP-induced [Ca2+]i shifts (P2X2R; 100 μM) | Effect on 2MeSADP-activated [Ca2+]i shifts (P2Y12R) | Effect on NAADP-induced [Ca2+]i shifts (P2Y11R) | Effect on ATP-induced [Ca2+]i shifts (P2X2R; 10 μM)
1 | N#Cc1cnn(-c2nnc(-c3ccccc3Cl)s2)c1N [Compound 9b] | moderate permeability | – | – | – | – | – | – | – | – | – | –
2 | N#Cc1cnn(-c2nnc(-c3ccc(F)cc3)s2)c1N [Compound 9c] | moderate permeability | – | – | – | – | – | – | – | – | – | –
3 | CCOC(=O)c1cnn(-c2nnc(-c3ccccc3Cl)s2)c1N [Compound 9f] | – | did not inhibit | did not inhibit | did not inhibit | did not inhibit | did not have inhibitory effects | did not show inhibitory activity | did not inhibit | not inhibited | did not inhibit | –
4 | COc1ccc(CC(=O)NC(NC(=NC#N)Nc2cccc3ncccc23)C(C)(C)C)cc1OC (centres unmarked) [Compound A740003, N-(1-{[(cyanoimino)(5-quinolinylamino)methyl]amino}-2,2-dimethylpropyl)-2-(3,4-dimethoxyphenyl)acetamide] | – | did not inhibit | did not inhibit | did not inhibit | did not inhibit | did not have inhibitory effects | did not show inhibitory activity | – | not inhibited | did not inhibit | did not inhibit
